Activity calls are given as the source filed them. The calls are words filed in the database; no cut-off is given here.

Consider 30 compounds from ChEMBL document CHEMBL1629424, “Does conjugation of antioxidants improve their antioxidative/anti-inflammatory potential?” (Bioorg Med Chem, 2010).

Experiment [1] can be described thus: Antioxidant activity of the compound assessed as reducing activity of DPPH at 0.1 mM after 20 mins. The class given is functional. Details: scale not given: the % may be the effect or the level left.
Experiment [2] deals with Glycine max. Description: Inhibition of soybean lipoxygenase at 0.1 mM.
Experiment [3] is described as follows: Antioxidant activity of the compound assessed as reducing activity of DPPH at 0.1 mM after 60 mins. Type of experiment: functional. Also on record: scale not given: the % may be the effect or the level left.
Experiment [4] in a line: Antioxidant activity against AAPH-induced lipid peroxidation assessed as inhibition of conjugated diene hydroperoxide production at 0.1 mM by UV spectrophotometry. The class given is functional.
For experiment [5], the system named is Glycine max. Description: Inhibition of soybean lipoxygenase at 0.05 mM.
Experiment [6] can be described thus: Inhibition of soybean lipoxygenase. Details: species or system Glycine max.
In the next experiment the test system is Rattus norvegicus. Description: Antiinflammatory activity in Fisher rat assessed as inhibition of carrageenan-induced paw oedema at 0.01 mmol/kg, po measured after 3.5 hrs. The class given is functional.
Experiment [7] can be described thus: Cytotoxicity against RAMEC assessed as cell viability after 24 hrs by MTT assay. To be noted: Rattus norvegicus.

For `O=C(O)CCc1ccc(O)c(O)c1`, the Activity in experiment [1] and in experiment [3] was 100% throughout. Further, the inhibition in the experiment on Glycine max [2] was 16%; in experiment [4], 47%. For the same compound, the inhibition entry with Glycine max [5] was “inactive”.
In the case of `COc1ccc(/C=C/C(=O)NCCOCCOC(=O)/C=C/C(=O)n2cc(C(=O)Nc3ccccc3)c3ccccc32)cc1OC`, the result in experiment [1] was inactive. In experiment [3], the Activity came out at 12%. The inhibition entry in experiment [4] was “inactive”. Also, in experiment [6], the IC50 was 33.5 µM.
For the compound `COc1ccc2c(c1)c(CC(=O)O)c(C)n2C(=O)c1ccc(Cl)cc1` [INDOMETHACIN], the inhibition in vivo at 10 µmol/kg in the experiment with Rattus norvegicus was determined as 47%.
In the case of `CC1=C(/C=C/C(C)=C/C=C/C(C)=C/C(=O)NCCCNCCCCNCCCNC(=O)/C=C/c2c(C)oc3c(C)c4oc(=O)cc(C)c4cc23)C(C)(C)CCC1`, the Activity in experiment [1] came out at 11%; in experiment [3] it was 38%. Further, the results for the inhibition (in the experiment on Glycine max [2]; in experiment [4]) were 43% and 45%, respectively. Moreover, in the experiment on Glycine max [5], the inhibition entry is “inactive”.
Take `O=C(O)/C=C/c1ccc(O)c(O)c1` [CAFFEIC ACID]: the figures for the Activity in experiment [1] and in experiment [3] were 5.5% and 6%, respectively. For the same compound, in experiment [4], the inhibition is 17.5%. In experiment [6], this compound yielded a half-maximal inhibitory concentration (IC50) of 600 µM.
Turning to `O=C(CCc1ccc(O)c(O)c1)NCCCNCCCCNCCCNC(=O)CCc1ccc(O)c(O)c1` [KUKOAMINE A], the Activity in experiment [1] turned out to be 96%; in experiment [3] it was 100%. Further, the 50% inhibitory concentration (IC50) in experiment [7] was determined as 3.5 µM; in experiment [6] it was 9.5 µM. In addition, the inhibition in experiment [4] turned out to be 72%. For the same compound, the inhibition in vivo at 10 µmol/kg in the experiment with Rattus norvegicus was 43%.
With `N[C@@H](Cc1ccc(O)c(O)c1)C(=O)NCCc1ccc(O)c(O)c1`, the Activity in experiment [1] and in experiment [3] was 92% throughout. In addition, the inhibition entry in experiment [4] is “inactive”. This compound gave an IC50 in experiment [6] of 81.5 µM.
With `Cc1c(C)c2c(c(C)c1O)CCC(C)(C(=O)O)O2` (centres undefined), the inhibition in experiment [4] is 63%.
Regarding `NCCCNCCCCNCCCN`, the Activity in experiment [1] and in experiment [3] was 4% in each case. Moreover, the inhibition result (in the experiment with Glycine max [2]; in experiment [4]; with Glycine max [5]) was “inactive” each time.
Turning to `COc1cc(C)c(/C=C/C(C)=C/C=C/C(C)=C/C(=O)NCCCNCCCCNCCCNC(=O)/C=C(C)/C=C/C=C(C)/C=C/c2c(C)cc(OC)c(C)c2C)c(C)c1C`, the Activity amounted to 26% in experiment [1] and 38% in experiment [3]. Further, the IC50 in experiment [7] was found to be 4.7 µM. Moreover, the inhibition with Glycine max [2] came out at 75%; in experiment [4], 97%. In addition, the inhibition entry in the experiment on Glycine max [5] is “inactive”. Besides, the inhibition in vivo at 10 µmol/kg with Rattus norvegicus came out at 19%.
As to `COc1ccc(/C=C/C(=O)NCCCNCCCCNCCCNC(=O)/C=C/c2ccc(OC)c(OC)c2)cc1OC`, the Activity is 52% in experiment [1] and 58% in experiment [3]. The values for the IC50 in experiment [7] and in experiment [6] were 11.3 µM and 62 µM, respectively. Also, in experiment [4], the inhibition amounted to 100%. In the experiment on Rattus norvegicus, the inhibition in vivo at 10 µmol/kg came out at 42%.
Consider `CC1=C(/C=C/C(C)=C/C=C/C(C)=C/C(=O)NCCCCCCCCCCCCNC(=O)/C=C(C)/C=C/C=C(C)/C=C/C2=C(C)CCCC2(C)C)C(C)(C)CCC1`, for which the outcome in experiment [1] was inactive. In addition, the IC50 in experiment [7] was 2.8 µM. Moreover, the inhibition in the experiment with Glycine max [2] was 23%; in experiment [4], 41%. Further, in experiment [3], the Activity worked out at 13.4%. Moreover, the inhibition result in the experiment with Glycine max [5] is “inactive”.
In the case of `COc1ccc(/C=C/C(=O)NCCOCCOC(=O)/C=C/c2c(C)oc3c(C)c4oc(=O)cc(C)c4cc23)cc1OC`, the result in experiment [1] was inactive. The IC50 worked out at 12.9 µM in experiment [7] and 65 µM in experiment [6]. For the same compound, the Activity in experiment [3] came out at 15%. Besides, the inhibition in experiment [4] was determined as 98%. The inhibition in vivo at 10 µmol/kg in the experiment with Rattus norvegicus turned out to be 9%.
Regarding `NCCc1ccc(O)c(O)c1` [DOPAMINE], the Activity in experiment [1] and in experiment [3] was 86% throughout. In experiment [4], the inhibition was 43%. Besides, the inhibition in vivo at 10 µmol/kg in the experiment on Rattus norvegicus turned out to be 13%. Also, the IC50 in experiment [6] is 100 µM.
As for `Cc1oc2c(C)c3oc(=O)cc(C)c3cc2c1/C=C/C(=O)OC(C)(C)C`, the Activity in experiment [1] and in experiment [3] was 11% each time. In addition, the half-inhibitory concentration (IC50) in experiment [7] came to 2.9 µM; in experiment [6], 9.4 µM. The inhibition in experiment [4] worked out at 80%. Besides, the inhibition in vivo at 10 µmol/kg with Rattus norvegicus was 46%.
Consider `Cc1oc2c(C)c3oc(=O)cc(C)c3cc2c1/C=C/C(=O)NCCCNCCCCNCCCNC(=O)/C=C/c1c(C)oc2c(C)c3oc(=O)cc(C)c3cc12`, for which the Activity in experiment [1] came out at 41%; in experiment [3] it was 54%. The inhibition was determined as 57% with Glycine max [2] and 33% in experiment [4]. In the experiment on Glycine max [5], the inhibition entry was “inactive”.
For `Cc1oc2c(C)c3oc(=O)cc(C)c3cc2c1/C=C/C(=O)O`, in that order: 11%, 11%, 9%, 73% and “inactive”.
Consider `CCCCNC(=O)/C=C/c1c(C)oc2c(C)c3oc(=O)cc(C)c3cc12`, for which the outcome in experiment [1] was inactive. The inhibition is 24% with Glycine max [2] and 66% in experiment [4]. In addition, the Activity in experiment [3] turned out to be 8.4%. Also, the inhibition entry in the experiment on Glycine max [5] is “inactive”.
On to `COc1cc(C)c(/C=C/C(C)=C/C=C/C(C)=C/C(=O)NCc2ccccc2)c(C)c1C`, for which the result in experiment [1] was inactive. The Activity in experiment [3] came to 2%. The inhibition in experiment [4] worked out at 45%. The inhibition in vivo at 10 µmol/kg with Rattus norvegicus stood at 3.6%. It took 40.5 µM to reach half-maximal inhibition in experiment [6] (IC50).
With `N[C@@H](Cc1ccc(O)c(O)c1)C(=O)O`, the Activity in experiment [1] and in experiment [3] was 76% throughout. Further, the inhibition was 23% in the experiment with Glycine max [2] and 65% in experiment [4]. Besides, the inhibition entry in the experiment with Glycine max [5] was “inactive”.
For `O=C1O[C@H]([C@@H](O)CO)C(O)=C1O`, the Activity in experiment [1] stood at 99%; in experiment [3], 100%.
As to `CC1=C(/C=C/C(C)=C/C=C/C(C)=C/C(=O)NCCCNCCCCNCCCNC(=O)/C=C(C)/C=C/C=C(C)/C=C/C2=C(C)CCCC2(C)C)C(C)(C)CCC1`, the result in experiment [1] was inactive. In addition, the IC50 in experiment [7] turned out to be 2.6 µM. In addition, the figures for the inhibition (in the experiment with Glycine max [2]; in experiment [4]) were 76% and 58%, respectively. The Activity in experiment [3] worked out at 5%. Moreover, the inhibition result in the experiment with Glycine max [5] is “inactive”. For the same compound, the inhibition in vivo at 10 µmol/kg in the experiment on Rattus norvegicus came to 40%.
Turning to `N[C@@H](Cc1ccc(O)c(O)c1)C(=O)NCCCNCCCCNCCCNC(=O)[C@@H](N)Cc1ccc(O)c(O)c1`, the results for the Activity in experiment [1] and in experiment [3] were 89% and 96%, respectively. Also, the inhibition amounted to 32% in the experiment with Glycine max [2] and 71% in experiment [4]. In addition, the inhibition entry in the experiment on Glycine max [5] was “inactive”.
As to `CC1=C(/C=C/C(C)=C/C=C/C(C)=C/C(=O)O)C(C)(C)CCC1` [TRETINOIN], the Activity in experiment [1] is 11%; in experiment [3] it was 23%. For the same compound, in experiment [7], the 50% inhibitory concentration (IC50) was 18.3 µM. Besides, the inhibition result in the experiment with Glycine max [2] and in the experiment with Glycine max [5] was “inactive” each time. In addition, in experiment [4], the inhibition stood at 75%. Besides, the inhibition in vivo at 10 µmol/kg in the experiment on Rattus norvegicus turned out to be 11%.
Turning to `COc1cc(C)c(/C=C/C(C)=C/C=C/C(C)=C/C(=O)O)c(C)c1C` [ACITRETIN], the outcome in experiment [1] and in experiment [3] was inactive. In experiment [7], the concentration for half-maximal inhibition (IC50) is 14.6 µM. In addition, the inhibition with Glycine max [2] was 1%; in experiment [4], 85%. Further, the inhibition entry in the experiment on Glycine max [5] was “inactive”. For the same compound, the inhibition in vivo at 10 µmol/kg in the experiment on Rattus norvegicus came out at 63%.
Consider `COc1ccc(/C=C/C(=O)O)cc1OC`, for which the Activity was 9% in experiment [1] and 10% in experiment [3]. For the same compound, the inhibition amounted to 23% in the experiment on Glycine max [2] and 56% in experiment [4]. The inhibition result in the experiment on Glycine max [5] was “inactive”.
In the case of `O=C(O)/C=C/C(=O)n1cc(C(=O)Nc2ccccc2)c2ccccc21`, the Activity in experiment [1] came out at 1%. In addition, in experiment [3], the outcome was inactive. The inhibition in experiment [4] is 85%. Besides, in the experiment on Rattus norvegicus, the inhibition in vivo at 10 µmol/kg is 11%. Also, the IC50 in experiment [6] was 52.4 µM.
On to `COc1cc(C)c(/C=C/C(C)=C/C=C/C(C)=C/C(=O)NCCCNCCCCNCCCNC(=O)/C=C/c2c(C)oc3c(C)c4oc(=O)cc(C)c4cc23)c(C)c1C`, for which the result in experiment [1] and in experiment [3] was inactive. In experiment [4], the inhibition came to 31%. Moreover, in experiment [6], 41.5 µM corresponded to half-maximal inhibition (IC50).
In the case of `CC(Cc1ccc(O)c(O)c1)C(C)Cc1ccc(O)c(O)c1` (centres undefined), in experiment [3], the Activity is 83%.
For `COc1cc(C)c(/C=C/C(C)=C/C=C/C(C)=C/C(=O)NCCc2ccc(O)c(O)c2)c(C)c1C`, the Activity in experiment [1] and in experiment [3] was 79% throughout. In addition, the inhibition in experiment [4] was 10%. The inhibition in vivo at 10 µmol/kg with Rattus norvegicus came to 13.7%. Further, in experiment [6], the IC50 is 87 µM.
